From paper PMC11375437, “Selective labelling of GBA2 in cells with fluorescent β-D-arabinofuranosyl cyclitol aziridines” (Chemical Science, 2024)

Biological target: T1, GBA3 (Homo sapiens, UniProt Q9H227)
T1 construct: expressed in transfected cells; host or cells: HEK293T GBA1/GBA2 KO, GBA3 overexpressed
T1 sequence (Q9H227 1-469): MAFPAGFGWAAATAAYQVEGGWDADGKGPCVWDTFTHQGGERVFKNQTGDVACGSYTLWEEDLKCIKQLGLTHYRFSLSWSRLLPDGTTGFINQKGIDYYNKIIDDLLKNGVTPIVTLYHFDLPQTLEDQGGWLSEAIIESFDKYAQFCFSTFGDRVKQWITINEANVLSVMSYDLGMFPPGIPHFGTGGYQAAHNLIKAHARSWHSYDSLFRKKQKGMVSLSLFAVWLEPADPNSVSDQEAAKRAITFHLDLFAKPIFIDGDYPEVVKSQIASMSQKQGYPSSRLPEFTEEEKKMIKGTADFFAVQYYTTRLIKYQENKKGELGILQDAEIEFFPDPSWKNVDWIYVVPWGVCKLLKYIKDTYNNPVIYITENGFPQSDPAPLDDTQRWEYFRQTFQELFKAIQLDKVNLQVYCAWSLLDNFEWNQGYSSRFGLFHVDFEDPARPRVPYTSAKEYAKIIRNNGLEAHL
Test: 4MU fluorogenic substrate assay for apparent IC50, GBA3
Assay type: biochemical
Settings: 30 min pre-incubation, 4MU-β-D-Glc
Text: To identify an ABP that selectively labels human GBA2 over GBA1 and GBA3, a library of cyclophellitol-based ABPs with varying configurations (ESI Fig. S1 ^†) was screened for their selectivity towards human retaining β-glucosidases. For this purpose, we initially assessed the inhibition properties of the compounds using recombinant human GBA1 (rhGBA1, imiglucerase), lysates of cells overexpressing GBA2 or GBA3 (both in combination with knockout of the other retaining β-glucosidases). In a preliminary screen, enzymes were pre-incubated for 30 min with the tested compounds, followed by the addition of the fluorogenic substrate, 4MU-β-D-Glc, and subsequent quantification of released fluorescent 4MU after 30 minutes. This screening brought our attention to a new set of β-D-Araf cyclitol aziridines as potential GBA2 inhibitors. […] On the other hand, the biotin-tagged β-D-Araf compound 6 is a poor inhibitor of all three glucosidases (apparent IC50 > 8 μM). Arabinofuranosyl cyclitol 12–20 with various configurations (α-L-Araf and β-L-Araf) were also evaluated (ESI Fig. S1 ^†).
Recombinant human GBA1 (rhGBA1, Imiglucerase) was kindly provided by Sanofi Genzyme (Cambridge, MA, USA). 4-Methylumbelliferyl-β-D-glucopyranoside substrates were purchase from Glycosynth (Warrington Cheshire, UK). Protein concentration was measured using the Pierce BCA assay kit (Thermo Fisher Scientific, Waltham, MA, USA). Harvested cells (cell pellets), cell lysates and tissue homogenates not used directly were stored at -80 °C.
HEK293T (CRL‐3216™) cells were purchased from ATCC (Manassas, VA, USA). HEK293T cells were cultured in DMEM medium (Sigma‐Aldrich), supplied with 10% (v/v) FCS, 0.1% (w/v) penicillin/streptomycin and 1% (v/v) Glutamax, under 37 °C and 5% or 7% CO2. […]
2.3 Generation of cells genetically modified for β-glucosidase expression For overexpression of the different β-glucosidases, "wildtype" HEK293T cells, HEK293T cells with GBA2 knockout (KO) or HEK293T cells with both GBA1 and GBA2 KO were used, following by the overexpression (OE) of targeted β-glucosidases using the constructs as described in references.1,2 Either GBA2 or GBA3 were overexpressed in GBA1/GBA2 KO HEK293T (generated by the CRISPR/Cas9 method2) to generate GBA1/2 KOs with GBA2 (or GBA3) for overexpression in HEK293T cells as indicated, or using "wildtype" HEK293T cells containing endogenous GBA1 and GBA2 to overexpress both GBA2 and GBA3, these were generated as described in our previous report.1,2 […]
Cells were cultured with the method described above to 80-90% confluency, and were isolated, washed with Dulbecco′s phosphate buffered saline (PBS) and subsequently collected using the following method.3 HEK293T and RPE-1 cells were easily detached from the culture plate by trypsin treatment after which some DMEM medium was added. The cells were collected by pipetting and DMEM medium was removed by centrifuging. The cells were washed with cold PBS three times, after which they were centrifuged to remove PBS and then stored at –80 °C for further use or lysed in potassium phosphate buffer (K2HPO4-KH2PO4, 25 mM, pH 6.5, supplemented with 0.1% (v/v) Triton X-100 and protease inhibitor cocktail (EDTA-free, Roche, Basel, Switzerland)) by sonication with a Polytron PT 1300D sonicator (Kinematica, Luzern, Switzerland). After sonication, lysed mixtures were centrifuged at 10,000 x g for 3 min at 4°C, and the supernatants where desired β-glucosidases exist were used for the experiment.
2.5 4MU fluorogenic substrate assay for apparent IC50 determination
4MU fluorogenic substrate assays (using recombination human rhGBA1 or lysates of HEK293T cells) were conducted in 96-well plates at 37 °C. Samples were diluted with McIlvaine buffer (150 mM citric acid-Na2HPO4) to a final volume of 25 μL, at the appropriate pH for each enzyme. Assays were performed by incubating the samples with 100 μL 4-methylumbelliferyl-β-D-glucopyranoside substrate diluted in McIlvaine buffer for a period of 30 min. […]

[1] = GBA1/GBA2 KO GBA3 OE HEK293T cell lysate, pH 6.0, n = 3 for β-D-Araf, n = 1 for α-L-Araf and β-L-Araf

Compound | IC50 [1] | IC50
COc1ccc(C2=[N+]3C(=C(CCCCc4cn(CCCCCCCCN5[C@@H]6[C@H](CO)[C@@H](O)[C@H](O)[C@@H]65)nn4)c4ccc(-c5ccc(OC)cc5)n4[B-]3(F)F)C=C2)cc1 (some centres unmarked) [ABP 4] | > 10 µM | –
CC1=CC(C)=[N+]2C1=C(CCCCc1cn(CCCCCCCCN3[C@@H]4[C@H](CO)[C@@H](O)[C@H](O)[C@@H]43)nn1)c1c(C)cc(C)n1[B-]2(F)F (some centres unmarked) [ABP 3] | > 10 µM | –
OC[C@@H]1[C@@H](O)[C@H](O)[C@@H]2N[C@H]12 [Compound 1, β-D-Arabinofuranosyl cyclitol aziridine] | > 50 µM | > 50 µM
[N-]=[N+]=NCCCCCCCCN1[C@@H]2[C@H](CO)[C@@H](O)[C@H](O)[C@@H]21 (stereo partly drawn) [Compound 2, β-D-arabinofuranosyl cyclitol aziridine-azidooctyl] | 8.15 µM | –
O=C(CCCC[C@@H]1SC[C@@H]2NC(=O)N[C@@H]21)NCc1cn(CCCCCCCCN2[C@@H]3[C@H](CO)[C@@H](O)[C@H](O)[C@@H]32)nn1 (some centres unmarked) [ABP 6] | 10.3 ± 1.9 µM | > 8 µM
CN1/C(=C/C=C/C=C/C2=[N+](CCCCCC(=O)NCc3cn(CCCCCCCCN4[C@@H]5[C@H](CO)[C@@H](O)[C@H](O)[C@@H]54)nn3)c3ccccc3C2(C)C)C(C)(C)c2ccccc21 (some centres unmarked) [ABP 5] | 1.52 ± 0.159 µM | –
